System: Staphylococcus aureus (mouse-adapted MRSA strain 5)
Test: animal or person
Assay type: in vivo, mice
Procedure: Tested medicament was glutaryl histamine in doses of 15, 30 and 45 mg/kg. Solutions of the tested medicament for oral administration were prepared ex tempore in stream water. Ampicillin (in intravenous administration) was used as a therapeutic preparation since it is the most experimentally studied antibiotic approved in clinical practice many years ago. Levofloxacin was used as a positive control (in oral administration).
Staphylococcus aureus was used as an infectious agent (mouse-adapted MRSA strain 5, collection from GU NIINA im.G.F. Gauze RAMN).
Firstly, there was determined a lethal dose (LD100) of staphylococcus when intravenously administered to this line of mice with a certain weight. Fatal cases among mice were registered every day for ten days. […] After that, there was determined the dose of ampicillin providing a survival rate of 20% of mice infected with staphylococcus MRSA taken in a lethal dose. For this purpose, mice were housed into cages by 10 animals and infected with a lethal dose of staphylococcus. One hour later, each mouse was intravenously administered ampicillin in doses of 30, 60, 90, 120, 150, and 180 mg/kg. A group of mice infected with a lethal dose of staphylococcus without the treatment was considered as a control group. Fatal cases among mice were registered every day for ten days.
The next step of the experiment was to study an effect of combined administration of glutaryl histamine with ampicilline on a model of MRSA-induced staphylococcal sepsis in mice.
In the experiment, the mice were housed in following groups of 10 animals per cage: […]

[1] = group 2: ampicillin 120 mg/ml i.v. one time

CC1(C)S[C@@H]2[C@H](NC(=O)[C@H](N)c3ccccc3)C(=O)N2[C@H]1C(=O)O [ampicillin]
Survival rate (%) (ampicillin 30 mg/kg + LD100 St.a., day 10): 0%
Survival rate (%) (ampicillin 60 mg/kg + LD100 St.a., day 10): 0%
Survival rate (%) (ampicillin 90 mg/kg + LD100 St.a., day 10): 10%
Survival rate (%) (ampicillin 120 mg/kg + LD100 St.a., day 10): 20%
Survival rate (%) (ampicillin 150 mg/kg + LD100 St.a., day 10): 20%
Survival rate (%) (ampicillin 180 mg/kg + LD100 St.a., day 10): 20%
died/survived animals (day 1, ampicillin 30 mg/kg + LD100 St.a.): 0/10
died/survived animals (day 1, ampicillin 60 mg/kg + LD100 St.a.): 0/10
died/survived animals (day 1, ampicillin 90 mg/kg + LD100 St.a.): 0/10
died/survived animals (day 1, ampicillin 120 mg/kg + LD100 St.a.): 0/10
died/survived animals (day 1, ampicillin 150 mg/kg + LD100 St.a.): 0/10
died/survived animals (day 1, ampicillin 180 mg/kg + LD100 St.a.): 0/10
died/survived animals (day 1, group 2: ampicillin 120 mg/ml i.v. one time): 0/10
died/survived animals (day 2, ampicillin 30 mg/kg + LD100 St.a.): 1/9
died/survived animals (day 2, ampicillin 60 mg/kg + LD100 St.a.): 0/10
died/survived animals (day 2, ampicillin 90 mg/kg + LD100 St.a.): 0/10
died/survived animals (day 2, ampicillin 120 mg/kg + LD100 St.a.): 0/10
died/survived animals (day 2, ampicillin 150 mg/kg + LD100 St.a.): 0/10
died/survived animals (day 2, ampicillin 180 mg/kg + LD100 St.a.): 0/10
died/survived animals (day 2, group 2: ampicillin 120 mg/ml i.v. one time): 0/10
died/survived animals (day 3, ampicillin 30 mg/kg + LD100 St.a.): 3/7
died/survived animals (day 3, ampicillin 60 mg/kg + LD100 St.a.): 2/8
died/survived animals (day 3, ampicillin 90 mg/kg + LD100 St.a.): 1/9
died/survived animals (day 3, ampicillin 120 mg/kg + LD100 St.a.): 1/9
died/survived animals (day 3, ampicillin 150 mg/kg + LD100 St.a.): 0/10
died/survived animals (day 3, ampicillin 180 mg/kg + LD100 St.a.): 0/10
died/survived animals (day 3, group 2: ampicillin 120 mg/ml i.v. one time): 1/9
died/survived animals (day 4, ampicillin 30 mg/kg + LD100 St.a.): 6/4
died/survived animals (day 4, ampicillin 60 mg/kg + LD100 St.a.): 4/6
died/survived animals (day 4, ampicillin 90 mg/kg + LD100 St.a.): 3/7
died/survived animals (day 4, ampicillin 120 mg/kg + LD100 St.a.): 4/6
died/survived animals (day 4, ampicillin 150 mg/kg + LD100 St.a.): 3/7
died/survived animals (day 4, ampicillin 180 mg/kg + LD100 St.a.): 2/8
died/survived animals (day 4, group 2: ampicillin 120 mg/ml i.v. one time): 2/8
died/survived animals (day 5, ampicillin 30 mg/kg + LD100 St.a.): 8/2
died/survived animals (day 5, ampicillin 60 mg/kg + LD100 St.a.): 6/4
died/survived animals (day 5, ampicillin 90 mg/kg + LD100 St.a.): 5/5
died/survived animals (day 5, ampicillin 120 mg/kg + LD100 St.a.): 6/4
died/survived animals (day 5, ampicillin 150 mg/kg + LD100 St.a.): 5/5
died/survived animals (day 5, ampicillin 180 mg/kg + LD100 St.a.): 4/6
died/survived animals (day 5, group 2: ampicillin 120 mg/ml i.v. one time): 3/7
died/survived animals (day 6, ampicillin 30 mg/kg + LD100 St.a.): 9/1
died/survived animals (day 6, ampicillin 60 mg/kg + LD100 St.a.): 8/2
died/survived animals (day 6, ampicillin 90 mg/kg + LD100 St.a.): 7/3
died/survived animals (day 6, ampicillin 120 mg/kg + LD100 St.a.): 7/3
died/survived animals (day 6, ampicillin 150 mg/kg + LD100 St.a.): 7/3
died/survived animals (day 6, ampicillin 180 mg/kg + LD100 St.a.): 6/4
died/survived animals (day 6, group 2: ampicillin 120 mg/ml i.v. one time): 5/5
died/survived animals (day 7, ampicillin 30 mg/kg + LD100 St.a.): 10/0
died/survived animals (day 7, ampicillin 60 mg/kg + LD100 St.a.): 9/1
died/survived animals (day 7, ampicillin 90 mg/kg + LD100 St.a.): 8/2
died/survived animals (day 7, ampicillin 120 mg/kg + LD100 St.a.): 8/2
died/survived animals (day 7, ampicillin 150 mg/kg + LD100 St.a.): 7/3
died/survived animals (day 7, ampicillin 180 mg/kg + LD100 St.a.): 7/3
died/survived animals (day 7, group 2: ampicillin 120 mg/ml i.v. one time): 6/4
died/survived animals (day 8, ampicillin 30 mg/kg + LD100 St.a.): 10/0
died/survived animals (day 8, ampicillin 60 mg/kg + LD100 St.a.): 10/0
died/survived animals (day 8, ampicillin 90 mg/kg + LD100 St.a.): 9/1
died/survived animals (day 8, ampicillin 120 mg/kg + LD100 St.a.): 8/2
died/survived animals (day 8, ampicillin 150 mg/kg + LD100 St.a.): 8/2
died/survived animals (day 8, ampicillin 180 mg/kg + LD100 St.a.): 7/3
died/survived animals (day 8, group 2: ampicillin 120 mg/ml i.v. one time): 7/3
died/survived animals (day 9, ampicillin 30 mg/kg + LD100 St.a.): 10/0
died/survived animals (day 9, ampicillin 60 mg/kg + LD100 St.a.): 10/0
died/survived animals (day 9, ampicillin 90 mg/kg + LD100 St.a.): 9/1
died/survived animals (day 9, ampicillin 120 mg/kg + LD100 St.a.): 8/2
died/survived animals (day 9, ampicillin 150 mg/kg + LD100 St.a.): 8/2
died/survived animals (day 9, ampicillin 180 mg/kg + LD100 St.a.): 8/2
died/survived animals (day 9, group 2: ampicillin 120 mg/ml i.v. one time): 8/2
died/survived animals (day 10, ampicillin 30 mg/kg + LD100 St.a.): 10/0
died/survived animals (day 10, ampicillin 60 mg/kg + LD100 St.a.): 10/0
died/survived animals (day 10, ampicillin 90 mg/kg + LD100 St.a.): 9/1
died/survived animals (day 10, ampicillin 120 mg/kg + LD100 St.a.): 8/2
died/survived animals (day 10, ampicillin 150 mg/kg + LD100 St.a.): 8/2
died/survived animals (day 10, ampicillin 180 mg/kg + LD100 St.a.): 8/2
died/survived animals (day 10, group 2: ampicillin 120 mg/ml i.v. one time): 8/2
Mortality rate (%) [1]: 80%
Survival rate (%) [1]: 20%
